# Source: patent US20240238239A1, “METHODS AND COMPOSITIONS FOR PO[…] CELL THERAPIES” (Ojai Energetics PBC, priority 2016, published 2024)
# Test system: mice with spinal cord injuries
# Assay: Neural stem cell treatment after spinal cord injury (BMS scores, rotarod treadmill tests)
# Format: in vivo, mouse
# Settings: neural stem cells pre-treated with cannabidiol 1-50 μM for 10 days plus diet supplemented with microencapsulated hemp oil composition; combined treatment
# Procedure: Mouse neural stem cells expressing green fluorescent protein (GFP) under the control of a constitutive promoter are treated with either cannabidiol (1 μM, 5 μM, 10 μM or 50 μM) or vehicle control for 10 days. The cells are then transplanted directly into the spinal cords of mice with spinal cord injuries. Mice are maintained on a control diet or a diet supplemented with a microencapsulated hemp oil composition comprising cannabinoids, including cannabidiol, at concentrations similar to those used in the cell culture media. Mice are monitored daily for signs of spinal cord recovery evaluations of locomotor function based on Basso Mouse Scale (BMS) scores, a locomotor rating scale based on the frequency analyses of seven locomotor categories, and rotarod treadmill tests. Two months after the stem cell treatment the mice are sacrificed and the spinal cords are histologically examined.
smiles,measurement,value
C=C(C)[C@@H]1CCC(C)=C[C@H]1c1c(O)cc(CCCCC)cc1O [cannabidiol],spinal cord recovery (locomotor function),more rapid and more robust recovery
